For one assay, the system named is HaCaT cells. The assay is described as follows: Proliferation assay (HaCaT cells, ATP-lite bioluminescent readout of intracellular ATP). The assay is classed as cell-based. The settings on record: Homo sapiens, 144 h, absolute IC50 of inhibition of proliferation, 10% FBS, 6 days incubation, mean of 3 experiments. The method, then: Human adult low calcium high temperature (HaCaT) cells are spontaneously transformed human keratinocytes that have the characteristics of basal epidermal keratinocytes (Boukamp et at. J Cell Biol 106:761-771, 1988) This line can be used as in vitro model for highly proliferative epidermis (Ockenfels et at., Arch Dermatol Res 287:301-309, 1995)
HaCaT cells exponentially growing were plated in clear bottom, white walled, 96-well plates at a density of 5000 cells/well in 100 µL Dulbecco's modified Eagle's medium (DMEM) containing 1% fetal bovine serum (FBS), and incubated overnight at 37 °C, 5% CO2. Next day, media in each well was replaced with 50 µL growth medium containing 10% FBS. 50 µL of compounds at two-fold the desired concentration in growth medium containing 2% dimethyl sulfoxide (DMSO) were added to the wells. Six wells were replaced with fresh 100 µL of medium containing 1% FBS and 1% DMSO and were used as a control of no proliferation. Six other wells were replaced with fresh 100 µL of medium containing 10% FBS and 1% DMSO and were used as a control of top proliferation. Each compound concentration was tested in triplicate and ranged from 100 µM to 0.4 µM in half-log serial dilutions. Plates were incubated at 37°C 5% CO2 for 6 consecutive days. […] Results were expressed as a % of inhibition of proliferation in relation to the top and bottom proliferation wells. […]

Assay [1] has as its system premalignant and malignant human cutaneous keratinocytes. The settings on record: cytostasis was followed by apoptosis; cited from earlier work.

The structures appear in SMILES notation.

This is an account of results in patent publication EP2444088A1, “Amino derivatives for the treatment of proliferative skin disorders” (Almirall, S.A., priority 2010, dated 2012).

The compound `COc1cccc(-c2cc(F)c(Nc3ncccc3C(=O)O)c(F)c2)c1` [2-(3,5-difluoro-3'-methoxybiphenyl-4-ylamino)nicotinic acid] returned an IC50 with HaCaT cells of 580 nM. On to `O=C(O)c1cc(C2CC2)ccc1Nc1cnc(-c2c(F)cccc2F)nc1` [5-cyclopropyl-2-(2-(2,6-difluorophenyl)pyrimidin-5-ylamino)benzoic acid], for which the IC50 in the assay on HaCaT cells worked out at 260 nM. Regarding `CC(O)=C(C#N)C(=O)Nc1ccc(C(F)(F)F)cc1` [Teriflunomide, 2-Butenamide, 2-cyano-3-hydroxy-N-[4-(trifluoromethyl)phenyl]-], the “effect on premalignant and malignant human cutaneous keratinocytes” value in assay [1] was “dose- and time-dependent cytostasis”.

A word on the IC50: it is the midpoint of a concentration-inhibition curve.
